Patent US10265329B2, “Altering steroid metabolism for treatment of steroid-dependent disease” (THE CLEVELAND CLINIC FOUNDATION, priority 2015, dated 2019)
“Also recorded” adds a separate entry of the source.

What was measured:
[1] = Abi conversion to D4A in mouse serum after Abi acetate; format: in vivo; conditions: mice administered Abi acetate i.p.
Description: FIG. 1A-FIG. 1E provides chemical structures and graphs showing the structural consequences of the conversion from Abi to D4A that occurs in both mice, and patients, and requires 3βHSD. A, Schematic of Abi conversion to D4A. * double bond and C3-position for substrates and products of 3βHSD. B, Abi is converted to D4A in vivo. Abi acetate was injected i.p. in 5 mice. Blood was collected 2 h and 4 h after injection. Serum concentrations of Abi and D4A were quantified by mass spectrometry and are represented as the percentage of the sum total of Abi+D4A. C, D4A is detectable in all patients (n=12) with CRPC treated with Abi acetate. D, Representative mass spectrometry tracing of D4A and Abi from the serum of a patient treated with Abi acetate. E, 3βHSD1 is capable of converting Abi to D4A. LAPC4 cells overexpressing 3βHSD1 were treated with 10 μM Abi (or [^3H]-DHEA) for 24 h. Abi, D4A (as a percentage of Abi+D4A), [^3H]-DHEA and [^3H]-DHEA metabolites (labeled metabolites), were separated by HPLC. Results are shown as mean (n=3)±s.d. with biological replicates. The experiment was repeated independently at least 3 times.

LNCaP cells = experiment: Cell proliferation assay, DHT-stimulated growth; format: cell-based, human; conditions: DHT 0.5 nM, 2, 4 and 6 days
Description: LNCaP cells (0.1 million/mL) were seeded in 96-well plates and cultured in phenol red free RPMI-1640 mediums plus 10% charcoal stripped FBS with androgens and/or drugs. Medium was changed every other day. After 2, 4 or 6 days, cells were collected and lysed after treatment. Growth was then determined based on DNA content as detected by Hoechst stain and a Wallac Victor2 1420 Multilabel counter (Perkin Elmer). Two-tailed student's t-test was used to determine significance.

[2] = tested on: AR chromatin occupancy on PSA, TMPRSS2 and FKBP5 regulatory elements; experiment: AR chromatin occupancy ChIP assay in LNCaP cells; format: cell-based, human; conditions: 3 h
Description: LNCaP cells were serum-starved for at least 48 h and treated with indicated drugs and DHT for 3 h. A ChIP assay was performed with an anti-AR antibody (Santa Cruz, sc-816) as described previously. Li et al., Proc Natl Acad Sci USA. 108:3116-3123 (2011). All of the precipitated DNA samples were quantified by qPCR and normalized to input DNA. All ChIP experiments were performed at least three times. Primers used for ChIP experiments are from experiments previously described. Evaul et al., Endocrinology, 151:3514-3520 (2010).

3βHSD = target: T1, 3βHSD (Homo sapiens, UniProt P14060); experiment: Xenograft metabolism: [3H]-DHEA to AD in minced xenograft tumors; conditions: LNCaP and VCaP xenografts, 0.1-10 μM
T1 construct: endogenous in cells; host or cells: LNCaP, VCaP
T1 sequence (P14060 2-373 limits assumed): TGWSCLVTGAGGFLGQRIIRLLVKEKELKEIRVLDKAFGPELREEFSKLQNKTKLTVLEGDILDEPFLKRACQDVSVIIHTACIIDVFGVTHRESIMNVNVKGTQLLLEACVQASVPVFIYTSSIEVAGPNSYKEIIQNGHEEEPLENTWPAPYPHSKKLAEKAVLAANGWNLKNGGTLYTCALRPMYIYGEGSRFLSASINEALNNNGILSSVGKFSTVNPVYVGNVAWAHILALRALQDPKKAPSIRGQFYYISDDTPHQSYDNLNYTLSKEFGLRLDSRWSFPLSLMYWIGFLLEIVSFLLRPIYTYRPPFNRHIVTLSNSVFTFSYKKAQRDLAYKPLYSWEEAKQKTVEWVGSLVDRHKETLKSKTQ
Description: Cell Line Metabolism: Cells were seeded and incubated in 12-well plates with 0.2 million cells/well for ˜24 h and then incubated with a mixture of radioactive ([^3H]-labeled) and non-radioactive androgens (final concentration, 100 nM; ˜1,000,000 cpm/well; PerkinElmer, Waltham, Mass.) at 37° C. Aliquots of medium were collected at the indicated times. Collected medium was treated with 1,000 units of β-glucuronidase (Helix pomatia; Sigma-Aldrich) at 65° C. for 2 h, extracted with 860 μL ethyl acetate:isooctane (1:1), and concentrated under nitrogen gas. Xenograft Metabolism: 10^7 LNCaP or VCaP cells were injected subcutaneously with Matrigel into surgically orchiectomized NSG mice that were implanted with 5 mg 90-day sustained-release DHEA pellets (Innovative Research of American, Sarasota, Fla.). […] Each xenograft was analyzed in triplicate in at least three independent experiments. […]
Dried samples were reconstituted in 50% methanol and injected into the HPLC. […] Alternatively, dried samples were applied to plastic-backed silica gel plates and separated by thin-layer chromatography (TLC) using a mobile phase of 3:1 chloroform:ethyl acetate, followed by exposure of the plates to a phosphorimager screen and quantitated with a Storm model 860 phosphorimager (Applied Biosystems, Foster City, Calif.). […]

human 3βHSD1 = target: T2, human 3βHSD1 (Homo sapiens, UniProt P14060); experiment: Recombinant 3βHSD1 enzyme assay, [3H]-pregnenolone metabolism (Lineweaver-Burk); format: biochemical; conditions: pregnenolone substrate; D4A 5-20 μmol/L
T2 construct: made in house; host or cells: yeast (microsomes)
T2 sequence (P14060 whole entry): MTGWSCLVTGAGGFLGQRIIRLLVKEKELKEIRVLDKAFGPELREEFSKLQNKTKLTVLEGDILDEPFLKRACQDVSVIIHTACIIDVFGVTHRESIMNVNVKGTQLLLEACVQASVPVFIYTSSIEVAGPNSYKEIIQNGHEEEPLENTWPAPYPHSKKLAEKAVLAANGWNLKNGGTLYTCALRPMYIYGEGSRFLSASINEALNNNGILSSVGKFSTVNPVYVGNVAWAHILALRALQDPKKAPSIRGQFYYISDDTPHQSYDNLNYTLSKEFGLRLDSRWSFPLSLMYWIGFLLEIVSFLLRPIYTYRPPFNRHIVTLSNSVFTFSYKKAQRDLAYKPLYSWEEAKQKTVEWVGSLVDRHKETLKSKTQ
Description: To test D4A as an inhibitor of 3βHSD, enzyme assays were performed as described previously. Li et al., Clin Cancer Res. 18:3571-3579 (2012). Briefly, incubations were prepared with recombinant human 3βHSD1 or 3βHSD2 (in yeast microsomes, 45 or 2.5 μg protein per incubation, respectively), [^3H]-pregnenolone (100,000 cpm, 1-20 μmol/L), and D4A (5-20 μmol/L) or ethanol vehicle in 0.5 mL of potassium phosphate buffer (pH 7.4). After a pre-incubation at 37° C. for 1 to 3 min, NAD (1 mmol/L) was added, and the incubation was conducted at 37° C. for 20 min. The reaction was stopped by addition of 1 mL ethyl acetate:isooctane (1:1), and the steroids were then extracted into the organic phase and dried. The steroids in the dried extracts were resolved by HPLC and quantitated by in-line scintillation counting

## C[C@]12CCC(=O)C=C1CC[C@@H]1[C@@H]2CC[C@]2(C)C(c3cccnc3)=CC[C@@H]12 [Compound D4A, 17-(3-Pyridyl)androsta-4,16-dien-3-one]
[1]
  detection in sera of mice: detectable
LNCaP cells
  effect on DHT-stimulated cell growth: more potent than Abi
[2]
  inhibition of DHT-induced AR chromatin occupancy: superior to Abi and somewhat lower than enzalutamide
3βHSD
  potency relative to Abi in blocking conversion from DHEA by 3βHSD to AD: 10 fold
Human 3βHSD1
  type of inhibition of 3βHSD1: mixed competitive-noncompetitive inhibition; also recorded: mixed inhibition kinetics
